Measured values published in US10851096B2, “Aryl and heteroaryl amides for use as anti-proliferative, anti-thrombotic, and anti-viral agents” (Rutgers, The State University of New Jersey, priority 2016, dated 2020).

Columns and labels:
Axl/Gas6 interaction = molecular target: T1, Axl/Gas6 interaction (Homo sapiens, UniProt P30530); assay: Pull-down competitive inhibition assay of Gas6 binding to His-tagged soluble Axl; settings: His-tagged soluble Axl Ig1/Ig2 with recombinant Gas6
T1 construct: His-tagged soluble Axl Ig1/Ig2 recombinant proteins; Amgen (Gas6 only)
Procedure: 400 nM His tagged-sAxl were co-incubated with increasing amounts of compound 1A (0, 5, 10 or 20 μM) in a 50 μl reaction mixture of Tris-Nacl Buffer (20 mM Tris.HCl, 150 mM NaCl, pH 8.0), and incubated at 37° C. for 60 minutes, with intermittent mixing. Thereafter, equal amount of hGas6 (100 nM) was added to each tube and incubated at 37° C. for another 60 minutes, with intermittent mixing. To each of the tubes, 1 μg of 6×-His antibody was added and the mixture was incubated overnight at 4° C. on a rotary mixer. After overnight incubation, 30 μl of Protein A/G PLUS agarose beads (Santa Cruz) were added into each of the tubes and incubated for an hour at 4° C. The mixtures were centrifuged and the pellets were then washed four times in ice-cold Nonidet P-40 buffer (20 mM Tris.HCl, 150 mM NaCl, pH 8.0 and 1% Nonidet P-40). Pellets were re-suspended in 30 μl of 2× sample loading dye and boiled for 5 min at 95° C. The samples were fractionated by SDS-PAGE and bound Gas6 was analyzed by immunoblotting.

native Axl = molecular target: T2, native Axl (Homo sapiens, UniProt P30530); assay: Gas6-inducible phosphorylation of native Axl in MDA-MB-231 cells (immunoblot); format: cell-based; settings: MBA-MD-231 breast cancer cell line, FIG. 5A
T2 construct: Gas6-inducible phosphorylation of native Axl (pAxl); endogenous in cells; host or cells: MDA-MB-231
T2 sequence (P30530 26-894): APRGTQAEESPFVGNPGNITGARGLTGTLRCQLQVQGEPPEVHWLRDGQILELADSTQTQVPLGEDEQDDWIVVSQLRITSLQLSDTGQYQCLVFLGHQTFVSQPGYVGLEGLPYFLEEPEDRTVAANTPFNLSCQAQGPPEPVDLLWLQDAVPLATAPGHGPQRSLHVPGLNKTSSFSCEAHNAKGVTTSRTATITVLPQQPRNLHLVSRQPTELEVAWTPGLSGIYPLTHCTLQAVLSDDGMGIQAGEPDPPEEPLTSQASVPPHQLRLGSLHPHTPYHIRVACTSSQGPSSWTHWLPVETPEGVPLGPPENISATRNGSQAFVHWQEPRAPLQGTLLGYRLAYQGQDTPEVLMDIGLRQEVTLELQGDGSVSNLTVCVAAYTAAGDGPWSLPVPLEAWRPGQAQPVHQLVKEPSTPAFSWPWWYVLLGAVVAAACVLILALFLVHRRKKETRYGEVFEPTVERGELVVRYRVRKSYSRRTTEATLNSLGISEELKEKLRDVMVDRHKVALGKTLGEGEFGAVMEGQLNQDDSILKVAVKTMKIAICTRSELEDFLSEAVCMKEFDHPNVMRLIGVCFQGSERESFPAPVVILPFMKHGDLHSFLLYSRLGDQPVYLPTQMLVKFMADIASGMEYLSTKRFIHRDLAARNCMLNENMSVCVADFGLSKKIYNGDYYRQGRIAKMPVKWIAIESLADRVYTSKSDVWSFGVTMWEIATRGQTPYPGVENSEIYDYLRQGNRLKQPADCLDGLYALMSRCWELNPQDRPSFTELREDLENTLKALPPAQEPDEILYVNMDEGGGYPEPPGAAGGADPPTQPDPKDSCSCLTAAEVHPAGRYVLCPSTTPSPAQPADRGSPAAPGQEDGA
Procedure: (§1) Stable hAxl/IFN-γR1 CHO reporter cell lines (containing human Axl extracellular domains and transmembrane and intracellular domains of human IFN-γR1) were serum starved for 5 hrs±small molecule inhibitors and then stimulated with human Gas6 conditioned media±small molecule inhibitors for 30 minutes. For H1299 human non-small cell lung carcinoma and MDA-MB-231 human breast adenocarcinoma cell lines, the cells were serum starved overnight±small molecule inhibitors and stimulated with human Gas6 conditioned media±small molecule inhibitors for 30 minutes. Whole cell lysates of hAxl/IFN-γR1, H1299 and MDA-MB-231 cells were prepared using HNTG buffer (20 mM HEPES, pH 7.5, 150 mM NaCl, 10% glycerol, 1% Triton X-100, 1 mM PMSF, 1 mM Na3VO4, 10 mM Na2MoO4, 1 mM EDTA, 10 mM NaF and 20 μg/mL aprotinin). The resulting lysates were resolved on SDS-PAGE gel and immunoblotted with respective antibodies.
Immunoblot data were obtained within a linear range of exposure, and intensities were quantified by ImageJ. The levels of hAxl/IFN-γR1 cells lines activation were measured by pSTAT1 whereas the levels of H1299 and MDA-MB-231 cell lines activation were measured by pAxl signal intensities. Blots were normalized to intensities of respective β-actin or GAPDH protein loading controls. […]

Akt phosphorylation = assay: Gas6-inducible Akt phosphorylation in Axl-positive cancer cell lines; format: cell-based, human; settings: pre-treatment with 10 μM
Procedure: as §1

H1299 cells [1] = assay: Real-time migration assay (RTCA DP Xcelligence), H1299; format: cell-based, human; settings: Gas6-inducible H1299 cells
Procedure: H1299 and MDA-MB-231 cells lines were seeded in complete medium and allowed to attain ˜80% confluence and then serum starved overnight in medium containing 0.5% FBS. The cells were then detached by Accutase (Sigma), counted and resuspended in serum-free RPMI-1640 medium. In the lower chamber of the CIM plate, 1×RPMI-1640 containing 10% FBS was added as a chemoattractant. In the top chamber, 50 μl of 1×RPMI-1640 was added to all wells. Both chambers were assembled, loaded in the Xcelligence system, and run for 30 min for equilibration or background readings. One hundred microliters of each cell line suspended in 1×RPMI-1640 (40,000 cells/100 μl)±Gas6±small molecule inhibitors then were added in triplicates in upper chamber wells. Readings for changes in the cell index (CI) were taken every 10 min for 24 h and migration was shown as a change in cell index versus time.

H1299 cells [2] = assay: Gas6-inducible motility through transwell pore, H1299; format: cell-based, human; settings: pretreatment of H1299 cells
H1299 cells [3] = assay: Colony forming assay, H1299; format: cell-based, human; settings: H1299 cultured in the presence of Gas6
Procedure: H1299 cells were plated in 6 well plates at a very low density (˜250 cells/well). Next day, the cells were treated with the SMIs at different concentrations. The cells were incubated with the drugs for 14 days. After 14 days, colonies were stained with 0.25% crystal violet in 95% ethanol. Colonies consisting of more than 50 cells were counted.

[4] = Pharmacokinetics in mice (half-life, bioavailability); format: in vivo, mouse; settings: for half-life: mouse, in vivo, read-out: half-life (t1/2) (converted)

Row | SMILES | inhibition of Axl/Gas6 interaction in vitro (Axl/Gas6 interaction) | inhibition of activation (phosphorylation) of Axl (native Axl) | Gas6-inducible Akt phosphorylation (Akt phosphorylation) | motility (real-time, cell index) (H1299 cells [1]) | Gas6-inducible motility through an 8 μm pore (H1299 cells [2]) | clonogenic growth (H1299 cells [3]) | bioavailability [4] | half-life [4] [min]
1 | Cc1noc(C)c1CSc1ccccc1C(=O)N1CCN(c2cccc(C(F)(F)F)c2)CC1 [1I] | able to inhibit in vitro the Axl/Gas6 interaction in a dose-dependent manner | potent inhibition | abrogated | suppressed motility | strongly suppressed | suppressed clonogenic growth | good bioavailability | ~480
2 | Cc1cc(CSc2ccccc2C(=O)NCCNc2ccc(C(F)(F)F)cc2[N+](=O)[O-])on1 [1Q] | able to inhibit in vitro the Axl/Gas6 interaction in a dose-dependent manner | potent inhibition | abrogated | suppressed motility | strongly suppressed | suppressed clonogenic growth | good bioavailability | ~480
